The target in assay [1] is T1, Aβ42 (Homo sapiens, UniProt P05067).
T1 construct: Recombinant Aβ42, Ultrapure, was purchased from rPeptide, Bogart, Ga., USA; purchased rPeptide, Bogart, Ga., USA
The experiment in a line: Thioflavin T (ThT) assay for Aβ fibrils. The format is biochemical. The settings on record: Table 3, 1:2 molar ratio to Aβ. The method, then: This method was the same as that published previously. Briefly, 60 μl samples of solutions containing Aβ42 (25 μM), ThT (15 μM) and between 0 and 125 μM RI-OR2 or RI-OR2-TAT, in 10 mM phosphate buffered saline (PBS), pH 7.4, were incubated in sealed, black, clear-bottomed 384-well plates (Corning). ThT fluorescence was monitored every 10 mins (λex=442 nm, λem=483 nm) for 48 h at 30° C. in a Biotek Synergy 2 plate reader.

Assay [2] addresses immobilized Aβ1-42 monomers and fibrils (Homo sapiens, UniProt P05067). The settings on record: cited from earlier work.

pKd: −log10 of the molar value. Read-outs that look alike come from different tables or passages of the source.

immobilized Aβ1-42 monomers and fibrils, sequence (P05067 672-713 limits assumed): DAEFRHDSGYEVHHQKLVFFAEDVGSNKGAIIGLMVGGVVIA
T1 sequence (P05067 672-713 limits assumed): as above

On to “Ac-rGffvlkGr-NH2 [RI-OR2, reference compound]”, for which the “% of control” value in assay [1] (48 hrs, Aβ alone = 100) is on record as 35%. The “RFU at 48 hours” value in assay [1] (Aβ 25 μM) was determined as 72265 RFU. The pKd in assay [2] (previously reported value, read-out: Kd, binding to Aβ42 fibrils) is 5.02; in assay [2] (published SPR data (28), read-out: binding affinity (Kd) for interaction with Aβ monomers and fibrils) it was 4.52 to 4.60.

As a reminder, the pKd is −log10 of the Kd, conventionally taken in molar units.

(Values after US9579358B2, “Compositions for binding to amyloid proteins” (LANCASTER UNIVERSITY BUSINESS ENTERPRISES LIMITED, priority 2011, dated 2017).)
